Measured values as given in patent publication US20050076943A1, “Thermoelectric sensor” (priority 2001, published 2005).

Experiments:
[1] = test system: rabbit ventricular cardiomyocytes; test: Heat output from isolated cardiac myocytes challenged with a mitochondrial uncoupler; type: cell-based; conditions: CCCP 14 μM final concentration, n=5
Protocol: Cardiomyocytes. Isolated cells were obtained from adult rabbit left ventricle by collagenase digestion and kept in Base Krebs Solution, containing: 120 mM NaCl, 20 mM sodium N-hydroxyethylpiperazine-N′-2-ethane sulphonic acid (HEPES), 5.4 mM KCl, 0.52 mM NaH2PO4, 3.5 mM MgCl2.6 H2O, 20 mM taurine, 10 mM creatine, 11.1 mM glucose, 0.1% bovine serum albumin (BSA), pH 7.4. Cells were transferred to the sensor chips using a pipette (manual or robotic instrument) and placed onto the thermocouple junctions.
Experimental Set-up: The sensor chip used in the experiment (FIG. 1) was connected to the custom-made low noise preamplifier, which was positioned within 1 cm of the sensor chip in order to reduce attenuation of the voltage signal and minimise interference. The chip-holder was connected to the amplifier through a gold plated 2.54 mm (0.1 inch) pitch PCB edge connector (gold was used consistently in all contacts to avoid the creation of additional thermocouple junctions between the sensor output and the amplifier input). A transparent chamber enclosed the sensor from the surrounding air to eliminate rapid temperature changes. Water (37° C. or 25° C.), maintained at a constant temperature, was circulated through a 1 ml chamber integrated as part of the copper base plate. […]

brown adipocytes = test: Thermogenic response (heat output) of cultured brown adipocytes on the thermoelectric sensor; type: cell-based
Protocol: Brown adipocytes. Brown adipose tissue (BAT) was dissected from the interscapular, subscapular and the axillary regions of four 4-week-old male Naval Medical Research Institute (NMRI) mice. Pre-adipocytes were isolated and seeded in three 30 mm culture dishes and incubated in medium containing sodium bicarbonate (3.7 g/l) under 8% CO2 atmosphere for 6 days, after which time they were harvested. The culture medium based on DMEM with pH 7.4, was modified with 10% foetal calf serum, 20 nM insulin, 1 nM triiodothyronin (T3), 25 μg/ml Na-ascorbate, 4 mM glutamine, 10 mM HEPES, 50 IU/ml penicillin and 50 μg/ml streptomycin. Insulin was required for the expression of mitochondrial uncoupling protein (UCP) whereas the presence of T3 increased the thermogenic response due to more β-adrenergic receptors on the cells. All chemicals were supplied from Sigma-Aldrich and ICN Biomedicals Inc.
Experimental Set-up: The sensor chip used in the experiment (FIG. 1) was connected to the custom-made low noise preamplifier, which was positioned within 1 cm of the sensor chip in order to reduce attenuation of the voltage signal and minimise interference. The chip-holder was connected to the amplifier through a gold plated 2.54 mm (0.1 inch) pitch PCB edge connector (gold was used consistently in all contacts to avoid the creation of additional thermocouple junctions between the sensor output and the amplifier input). A transparent chamber enclosed the sensor from the surrounding air to eliminate rapid temperature changes. Water (37° C. or 25° C.), maintained at a constant temperature, was circulated through a 1 ml chamber integrated as part of the copper base plate. Both amplifier and sensor were positioned under a stereo-microscope for the manipulation and positioning of cells, injection of drugs and visual observation throughout the experiment,. The attachment of cells on the thermopile was enhanced by pre-treating the sensor surface with poly-L-lysine, adsorbed from a 0.01% solution in buffer.
The cell chamber was first covered with a 0.5 μL drop of culture medium with a subsequent addition of 15 μL liquid paraffin (mineral oil) in order to prevent evaporation of the medium. Re-suspended adipocytes (or cardiomyocytes) were positioned on top of the sensing junctions using a micropipette and micromanipulator (FIG. 3a, b, c). Excess medium was removed from the titre chamber leaving a total volume of 700 pL.
Measurements of heat output from cells were made with the cell chamber filled with 700 pL of culture medium and overlain with a layer of mineral oil to prevent evaporation. The device was held at a constant temperature of either 25° C. or 37° C. In the absence of cells there was no response from the thermopile to the injection of 10 pL of culture medium, nor to 10 pL culture medium containing a final concentration of 1.4 μM NE (see FIG. 4). […] The magnitude of the response was consistent with published values from populations of cells, where above-threshold levels of NE activation induced a ten-fold increase in oxygen consumption.

single mouse liver cell = conditions: H2O2 initial concentration 14 mM, 700 pL, n=3
Description: The culture medium (pH 7.4) required to accommodate the cell occupied the full volume of the reaction vessel, and was considered to have the same thermodynamic properties as water. […] The heat conductance for a single cell system would be 80 μW/K with a heat capacity of 1 μJ/K.
Subsequently a mouse liver cell was positioned by a micromanipulator and immobilised on top of the temperature sensors in the reaction vessel with the aid of Cell-Tak tissue adhesive ensuring good thermal contact between the cell and sensor surface. H2O2 was then microinjected to yield an initial concentration of 14 mM after 200 seconds of the experiment commencing. The slightly altered pH value of the medium has minimal effect on the catalase activity. […] The short time constant for thermal equilibrium of the sensor (12 ms) compared to the long time duration of the measured signal (100 s), excludes a temperature difference in the injected solution as the cause of the measured temperature change.

SMILES: N#CC(C#N)=NNc1cccc(Cl)c1 [CCCP, carbonyl cyanide m-chlorophenyl hydrazone]
- heat production per cell [1]: 1.71 nW per cell
- mean change in signal ([1]; within three minutes): 136 μK

SMILES: NC[C@H](O)c1ccc(O)c(O)c1 [NE, noradrenaline]
- time to maximum value of heat production (brown adipocytes; 1.4 μM NE final concentration (saturated thermogenic response)): ≤ 2 min
- duration for which heat output was sustained (brown adipocytes; NE-stimulated cells, 1.4 μM): at least 20 minutes
- average power output per cell (brown adipocytes; brown adipocytes, 1.4 μM NE final concentration, n=5): 1.63 nW per cell
- average power output, thermogenic response from groups of 10 NE-stimulated cells (brown adipocytes; groups of 10 brown adipocytes, 1.4 μM NE final concentration, 700 pL chamber, n=5): 16.3 nW

SMILES: C=C(C)[C@H]1Cc2c(ccc3c2O[C@@H]2COc4cc(OC)c(OC)cc4[C@@H]2C3=O)O1 [rotenone]
- delay before temperature response began to return to basal level (brown adipocytes; NE-stimulated brown adipocytes, rotenone 14 μM final concentration): 3 min
- time for temperature response to return to basal level (brown adipocytes; NE-stimulated brown adipocytes, rotenone 14 μM final concentration, after the delay): ≤ 5 min

SMILES: OO [H2O2, Hydrogen peroxide]
- generated power, maximum signal change (single mouse liver cell): 38.2 nW
